The test system of data set [1] is HER2 xenograft mouse model. The settings on record: in vivo; cited from earlier work. As to the method: In our recent study,[29] we introduced a second-generation of pretargeting probes featuring a common 15-mer affibody-PNA conjugate, ZHER2:343-HP15, and three complementary secondary probes of varying lengths: a 9-mer (HP16), a 12-mer (HP17), and a 15-mer (HP18). […] At 4 h postinjection, there were no significant differences in the tumor-to-kidney ratios among the three different pretargeting groups.

Another data set has as its target Z-HP12. The data set is described as follows: SPR off-rate screening (single-cycle kinetics), immobilized Z-HP12. The settings on record: primary probe HP12 (immobilized Z-HP12), 25 °C, PBS-T pH 7.4, 120 nM HP16/HP20 or 362 nM HP21/HP19, dissociation 150 min, 1:1 model, duplicates. It is filed as binding. As to the method:
(§1) The stability of new pretargeting probe combinations was assessed using SPR, and duplex melting temperatures were measured with UV–vis spectroscopy. In SPR, a high concentration of the secondary probe was injected over immobilized primary agents, and the dissociation of the hybridized complexes was monitored over 150 min (see Figures 3A, S22, and Table 2).
(§2) We utilized SPR on a Biacore T200 instrument (Cytiva) to examine how secondary PNA probes (6-mer HP19, 7-mer HP21, 8-mer HP20, and 9-mer HP16) bind to primary agents. These experiments were conducted using dextran-coated CM5 sensor chips and PBS-T buffer at pH 7.4. The ligands were immobilized through a standard EDC/NHS coupling method, and the chip surface was sealed with ethanolamine. A reference surface with no primary agent was also included.
(§3) For ranking the off-rate (kd) of the secondary probes, we employed single-cycle kinetics (SCK) at 25 °C with a flow rate of 50 μL/min. […] Secondary PNA probes were injected at various concentrations, and dissociation was monitored for 10,000 s. To regenerate the chip surface, we used two 30 s injections of 10 mM glycine-HCl, pH 1.5.
(§4) All SPR experiments were performed in duplicate, and data analysis was conducted using the Biacore T200 Evaluation software version 2.0 with a 1:1 binding model.
(§5) Figure S22: Representative SPR sensorgrams of the dissociation phase of HP16 (9-mer), HP20 (8-mer), HP21 (7-mer) and HP19 […]
(§6) After injection with the secondary probe
(§7) (120 nM of HP16 and HP20 or 362 nM of HP21 and HP19) the dissociation of the formed complex was followed for 150 minutes. All experiments were done in duplicates, and the data presented is double-referenced (reference channel and buffer injection are subtracted).
(§8) (1 picture or pasted object on this page, not shown here)

The next data set has as its target Z-HP9. Put plainly: SPR off-rate screening (single-cycle kinetics), immobilized Z-HP9. The data set is classed as binding. The settings on record: primary probe HP9 (immobilized Z-HP9), 25 °C, PBS-T pH 7.4, 120 nM HP16/HP20 or 362 nM HP21/HP19, dissociation 150 min, 1:1 model, duplicates. The protocol: as §1, §2, §3, §4, §5, §6, §7, §8
A further data set has as its system HP12. Put plainly: UV melting of PNA:PNA duplex with primary probe HP12. It is filed as physicochemical. The settings on record: UV 260 nm, 20-95 °C at 1 °C/min, 5 μM each probe, 10 mM phosphate buffer, 10 mM KCl, pH 7.4. As to the method: The melting temperatures of secondary probes after duplex formation with primary probes were also measured by monitoring the absorbance at 260 nm as a function of temperature (see Figure S23). All probe pairs had melting temperatures well above 37 °C (body temperature) and ranged from 51 °C for the HP6:HP19 pair with 6 complementary bases to 82 °C for the previously studied HP15:HP18 pair with 15 complementary bases (see Figure 3B and Table 2). […] This secondary structure is typically adopted by antiparallel and L-amino acid-modified PNA–PNA duplexes at neutral pH.[49]
Figure S23: Normalized temperature melting profiles from 20–95°C for different primary and secondary probe pairs. UV melting curves at 260 nm. (A) HP15 (15-mer) toward secondary 15-, 12- and 9-mers. (B) HP12 (12-mer) toward secondary 12-, 9-, 8-, 7- and 6-mers. (C) HP9 (9-mer) toward secondary 9-, 8-, 7- and 6-mers. (D) HP6 (6-mer) toward secondary 6-mer.
Concentrations of duplexes in A–D are 5 μM in 10 mM […] with 10 mM KCl at pH 7.4.
(also on this page, place not known: Fraction melted Fraction meltedFraction melted Fraction melted) […]
Supplementary Material and methods […]
Biophysical characterization of PNA:PNA duplexes using CD Spectroscopy and […]
Circular dichroism (CD) and UV melts of PNA:PNA duplexes were measured on a CD spectrometer (Applied Photophysics, Leatherhead, UK) with Peltier temperature control and an external temperature probe. RP-HPLC purified and lyophilized PNA probes were dissolved in 10 mM phosphate buffer with 10 mM KCl at pH 7.4. Samples contained both primary and complementary secondary PNA probes at a final concentration of 5 µM for each probe. These samples were initially heated to 95°C for five minutes, allowed to cool to room temperature, and then transferred to a quartz cuvette with a 1.0 cm path length. A temperature probe was inserted into the solution through the cuvette's rubber cap. […]
from 20°C to 95°C with a 1°C/min temperature gradient. Simultaneously, the UV absorbance at 260 nm was recorded as a function of temperature. Fraction melted data was calculated […]
Fraction melted = 1 ― UVds― UVss , where UVss and UVds are the UV absorbances at 95°C and 20°C, respectively. The melting temperature (Tm) was determined as the maximum of the first derivative of the melting curve and was computed using the Global 3 analysis software (Applied Photophysics, […]
CD spectra in the range of 200–300 nm were recorded for all hybridized PNA:PNA pairs at 20°C before and after the UV melting experiments. All CD spectra were baseline subtracted and presented as an average of five scans.

Another data set relates to Z-HP15. Put plainly: Multicycle kinetic SPR, immobilized Z-HP15. It is filed as binding. The settings on record: MCK SPR. The protocol:
M^–1 s^–1, as well as the slowest dissociation rate constant (kd) at 3.4 × 10^–5 s^–1.
as §2
Association and dissociation times were set at 700 and 1800 s, respectively, with regeneration accomplished through a 30 s injection of 10 mM glycine-HCl, pH 1.5.
as §4

For another data set, the target named is ZHER2-HP15. The settings on record: SPR; cited from earlier work. As to the method: Our previously published preclinical therapy studies are based on PNA probes having 15 complementary nucleobases.[26],[27] Upon hybridization, these probes form an exceptionally stable duplex with a melting temperature (Tm) in solution of 86–88 °C. In a Biacore experiment, less than 5% of the hybridized secondary PNA detached during a 17 h long dissociation phase.[20] It is likely that shorter probe pairs than the original 15-mers provide enough binding affinity and specificity to achieve an efficient pretargeted radionuclide therapy in vivo.

The text below walks through data of PMC11091976, “Shorter Peptide Nucleic Acid Probes Improve Affibody-Mediated Peptide Nucleic Acid-Based Pretargeting” (ACS Pharmacology & Translational Science, 2024).

With `NC(=O)[C@H](Cc1ccc(O)cc1)NC(=O)[C@H](CCC(=O)O)NC(=O)[C@H](CCC(=O)O)NC(=O)CN(CCNC(=O)CN(CCNC(=O)CN(CCNC(=O)CN(CCNC(=O)CN(CCNC(=O)CN(CCNC(=O)CN(CCNC(=O)CN(CCNC(=O)CN(CCNC(=O)[C@H](CO)NC(=O)[C@H](CO)NC(=O)COCCOCCNC(=O)CN1CCN(CC(=O)O)CCN(CC(=O)O)CCN(CC(=O)O)CC1)C(=O)Cn1cnc2c(N)ncnc21)C(=O)Cn1cnc2c(N)ncnc21)C(=O)Cn1ccc(N)nc1=O)C(=O)Cn1cnc2c(N)ncnc21)C(=O)Cn1ccc(N)nc1=O)C(=O)Cn1ccc(N)nc1=O)C(=O)Cn1cnc2c(N)ncnc21)C(=O)Cn1cnc2c(=O)[nH]c(N)nc21)C(=O)Cn1cnc2c(=O)[nH]c(N)nc21` [[^177Lu]Lu-HP16, metal not drawn], the kidney uptake in data set [1] is on record as 6 ± 1 % ID/g.

Take “DOTA-AEEA-SS-aacaccagg-EEY-NH2 [HP16, 9-mer secondary PNA probe with DOTA]”: the kd at Z-HP12 is 1.3 × 10^–5 s^–1; at Z-HP9, 2.5 × 10^–5 s^–1; at Z-HP15 (primary probe HP15, 25 °C), 3.4 × 10^–5 s^–1; at Z-HP15 (primary probe HP15, 37 °C) it was 8.1 × 10^–5 s^–1; on ZHER2-HP15, 1.2 × 10^–5 s^–1. Also, the Tm in the data set on HP12 was found to be 68 °C. Also, the ka in the data set on Z-HP15 (primary probe HP15 (Z-HP15 immobilized), 25 °C, 1.4-70 nM, 1:1 model, duplicates) is 1.0 × 10^5 M^–1 s^–1; with Z-HP15 (primary probe HP15, 37 °C), 1.8 × 10^5 M^–1 s^–1. The Kd on Z-HP15 (primary probe HP15, 25 °C) is 0.32 nM; at Z-HP15 (primary probe HP15, 37 °C), 0.44 nM; on ZHER2-HP15, 0.28 nM.
